According to patent US10457687B2, “Aminoacid derivatives, a process for their preparation and pharmaceutical compositions containing them” (LES LABORATOIRES SERVIER, priority 2015, dated 2019):

What follows are compounds tested against Mcl-1 protein (Homo sapiens, UniProt Q07820) (assay: Inhibition of Mcl-1 by the fluorescence polarisation technique (Method 1 or Method 2)). Conditions: fluorescence polarisation, Fluorescein labelled ligand; Method 1 (not underlined) or Method 2 (underlined); read-out: IC50 (μM) Mcl-1 FP.
Assay type: binding
How it was run: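 Binding measured by FP, with Mcl-1 protein and fluorescein-labelled ligand mixed with compounds in an 11-point series at 5% final DMSO. Method 2 used 10 nM each of protein and ligand in phosphate buffer (20 mM Na2HPO4, 1 mM EDTA, 50 mM NaCl, pH 7.4); Method 1 used 5 nM protein, 1 nM ligand in HEPES buffer (10 mM HEPES, 150 mM NaCl, 0.05% Tween 20, pH 7.4).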

Chain of Mcl-1 protein (Q07820 whole entry): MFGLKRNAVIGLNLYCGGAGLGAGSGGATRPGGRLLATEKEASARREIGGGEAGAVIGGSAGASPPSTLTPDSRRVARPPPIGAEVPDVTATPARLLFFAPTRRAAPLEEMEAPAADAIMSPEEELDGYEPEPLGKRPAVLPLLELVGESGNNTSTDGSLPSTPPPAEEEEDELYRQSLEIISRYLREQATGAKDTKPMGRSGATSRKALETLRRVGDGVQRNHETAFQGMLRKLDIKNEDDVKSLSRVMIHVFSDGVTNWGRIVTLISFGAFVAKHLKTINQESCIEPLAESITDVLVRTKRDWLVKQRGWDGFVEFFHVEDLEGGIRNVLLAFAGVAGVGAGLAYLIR

Structure (SMILES) | IC50 [µM]
CCc1sc2ncnc(NC(Cc3ccccc3)C(=O)O)c2c1-c1cc(Cl)c(OCCN2CCN(C)CC2)c(Cl)c1C [Example 55, N-((5Ra)-5-{3,5-dichloro-2-methyl-4-[2-(4-methylpiperazin-1-yl)ethoxy]phenyl}-6-ethylthieno[2,3-d]pyrimidin-4-yl)-D-phenylalanine] | 8.84
CCc1sc2ncnc(NC(Cc3ccccc3C#N)C(=O)O)c2c1-c1cccc(Cl)c1C [Example 127, N-[(5Sa)-5-(3-chloro-2-methylphenyl)-6-ethylthieno[2,3-d]pyrimidin-4-yl]-2-cyano-D-phenylalanine] | 0.913
CCc1sc2ncnc(NC(Cc3ccccc3)C(=O)O)c2c1-c1cccc(F)c1C [Example 70, N-[6-ethyl-(5Ra)-5-(3-fluoro-2-methylphenyl)thieno[2,3-d]pyrimidin-4-yl]-D-phenylalanine] | 0.974
CCc1sc2ncnc(NC(Cc3ccccc3)C(=O)O)c2c1-c1cccc2c1c(Cl)cn2CCCN1CCN(C)CC1 [Example 241, N-((5Ra)-5-{3-chloro-1-[3-(4-methylpiperazin-1-yl)propyl]-1H-indol-4-yl}-6-ethyl-thieno[2,3-d]pyrimidin-4-yl)-D-phenylalanine] | 14.3
CCc1sc2ncnc(N[C@@H](C(=O)O)c3ccccc3)c2c1-c1cccc2ccccc12 (single isomer, unassigned) [Example 161] | 12.6
CCc1sc2ncnc(NC(Cc3ccccc3)C(=O)O)c2c1-c1cccc2ccn(C)c12 [Example 83, N-[6-ethyl-(5Sa)-5-(1-methyl-1H-indol-7-yl)thieno[2,3-d]pyrimidin-4-yl]-D-phenylalanine] | 0.258
C/C=C\c1sc2ncnc(N[C@H](Cc3ccccc3)C(=O)O)c2c1-c1cccc2ccccc12 [Example 105, N-[(5Ra)-5-(naphthalen-1-yl)-6-((1Z)-prop-1-en-1-yl)thieno[2,3-d]pyrimidin-4-yl]-D-phenylalanine] | 0.704
CCc1sc2ncnc(N[C@H](Cc3ccccc3OC)C(=O)O)c2c1-c1cccc2ccccc12 [Example 182, N-[6-ethyl-5-(naphthalen-1-yl)thieno[2,3-d]pyrimidin-4-yl]-2-methoxy-D-phenylalanine] | 0.407
C/C=C\c1sc2ncnc(N[C@H](Cc3ccccc3)C(=O)O)c2c1-c1cccc2ccccc12 [Example 104, N-[(5Sa)-5-(naphthalen-1-yl)-6-((1Z)-prop-1-en-1-yl)thieno[2,3-d]pyrimidin-4-yl]-D-phenylalanine] | 0.046
C=Cc1sc2ncnc(NC(Cc3ccccc3)C(=O)O)c2c1-c1cccc2ccccc12 [Example 102, N-[6-ethenyl-(5Sa)-5-(naphthalen-1-yl)thieno[2,3-d]pyrimidin-4-yl]-D-phenylalanine] | 0.073
CCc1sc2ncnc(N[C@H](Cc3cccc4ccccc34)C(=O)O)c2c1-c1cccc2ccccc12 (single isomer, unassigned) [Example 186, N-[6-ethyl-5-(naphthalen-1-yl)thieno[2,3-d]pyrimidin-4-yl]-3-naphthalen-1-yl-D-alanine] | 7.88
CCc1sc2ncnc(NC(Cc3ccc(F)cc3)C(=O)O)c2c1-c1cccc2ccccc12 [Example 177, N-[6-ethyl-(5Sa)-5-(naphthalen-1-yl)thieno[2,3-d]pyrimidin-4-yl]-4-fluoro-D-phenylalanine] | 0.957
CCc1sc2ncnc(NC(Cc3ccccc3OCCN3CCN(C)CC3)C(=O)O)c2c1-c1cccc(Cl)c1C [Example 154, N-[(5Sa)-5-(3-chloro-2-methylphenyl)-6-ethylthieno[2,3-d]pyrimidin-4-yl]-2-[2-(4-methylpiperazin-1-yl)ethoxy]-D-phenylalanine] | 2.32

The remaining lines, values ahead:

IC50 [µM] | Structure (SMILES)
0.227 | CCc1sc2ncnc(N[C@H](CC3CCCCC3)C(=O)O)c2c1-c1cccc2ccccc12 [Example 164, 3-cyclohexyl-N-[6-ethyl-5-(naphthalen-1-yl)thieno[2,3-d]pyrimidin-4-yl]-D-alanine]
0.466 | CCc1sc2ncnc(NC(Cc3ccccc3O)C(=O)O)c2c1-c1cccc2ccccc12 [Example 174, N-[6-ethyl-(5Sa)-5-(naphthalen-1-yl)thieno[2,3-d]pyrimidin-4-yl]-2-hydroxy-D-phenylalanine]
1.63 | CCc1sc2ncnc(NC(Cc3ccccc3)C(=O)O)c2c1-c1cccc(Br)c1C [Example 96, N-[(5Ra)-5-(3-bromo-2-methylphenyl)-6-ethylthieno[2,3-d]pyrimidin-4-yl]-D-phenylalanine]
1.86 | CC=Cc1sc2ncnc(NC(Cc3ccccc3)C(=O)O)c2c1-c1cccc2ccccc12 [Example 109, N-{(5Ra)-5-(naphthalen-1-yl)-6-[(1E)-prop-1-en-1-yl]thieno[2,3-d]pyrimidin-4-yl}-D-phenylalanine]
9.86 | O=C(O)C(Cc1ccccc1)Nc1ncnc2sc(CO)c(-c3cccc4ccccc34)c12 [Example 198, N-[6-(hydroxymethyl)-(5Sa)-5-(naphthalen-1-yl)thieno[2,3-d]pyrimidin-4-yl]-D-phenylalanine]
0.109 | CCc1sc2ncnc(NC(Cc3ccccc3)C(=O)O)c2c1-c1cccc(F)c1C [Example 69, N-[6-ethyl-(5Sa)-5-(3-fluoro-2-methylphenyl)thieno[2,3-d]pyrimidin-4-yl]-D-phenylalanine]
1.77 | CCc1sc2ncnc(N[C@H](CC3CC3)C(=O)O)c2c1-c1cccc2ccccc12 [Example 159, 3-cyclopropyl-N-[6-ethyl-5-(naphthalen-1-yl)thieno[2,3-d]pyrimidin-4-yl]-D-alanine]
1.15 | CCc1sc2ncnc(N[C@H](Cc3ccccc3C)C(=O)O)c2c1-c1cccc2ccccc12 (single isomer, unassigned) [Example 167, N-[6-ethyl-5-(naphthalen-1-yl)thieno[2,3-d]pyrimidin-4-yl]-2-methyl-D-phenylalanine]
11.7 | CCc1sc2ncnc(N[C@@H](C(=O)O)c3ccccc3)c2c1-c1cccc2ccccc12 (single isomer, unassigned) [Example 160]
2.53 | CCc1sc2ncnc(NC(Cc3c[nH]c4ccccc34)C(=O)O)c2c1-c1cccc2ccccc12 [Example 185, N-[6-ethyl-(5Sa)-5-(naphthalen-1-yl)thieno[2,3-d]pyrimidin-4-yl]-D-tryptophan]
1.46 | CCc1sc2ncnc(N[C@](C)(Cc3ccccc3)C(=O)O)c2c1-c1cccc(Cl)c1C [Example 119, N-[5-(3-chloro-2-methylphenyl)-6-ethylthieno[2,3-d]pyrimidin-4-yl]-alpha-methyl-D-phenylalanine]
4.75 | CCc1sc2ncnc(NC(Cc3ccccc3)C(=O)O)c2c1-c1cccc2ccccc12 [Example 100, N-[6-ethyl-(5Ra)-5-(naphthalen-1-yl)thieno[2,3-d]pyrimidin-4-yl]-D-phenylalanine]
0.839 | CCc1sc2ncnc(N[C@@H](Cn3cccn3)C(=O)O)c2c1-c1cccc(Cl)c1C (racemic) [Example 110, N-[5-(3-chloro-2-methylphenyl)-6-ethylthieno[2,3-d]pyrimidin-4-yl]-3-(1H-pyrazol-1-yl)alanine]
8.36 | CC(C)(O)c1sc2ncnc(NC(Cc3ccccc3)C(=O)O)c2c1-c1cccc2ccccc12 [Example 210, N-[6-(2-hydroxypropan-2-yl)-(5Sa)-5-(naphthalen-1-yl)thieno[2,3-d]pyrimidin-4-yl]-D-phenylalanine]
0.086 | COc1ccccc1CC(Nc1ncnc2sc(C(C)C)c(-c3cccc(Cl)c3C)c12)C(=O)O [Example 223, N-[(5Sa)-5-(3-chloro-2-methylphenyl)-6-(propan-2-yl)thieno[2,3-d]pyrimidin-4-yl]-2-methoxy-D-phenylalanine]
0.154 | CCc1sc2ncnc(NC(Cc3ccccc3OCCC3CCCC3)C(=O)O)c2c1-c1cccc(Cl)c1C [Example 144, N-[(5Sa)-5-(3-chloro-2-methylphenyl)-6-ethylthieno[2,3-d]pyrimidin-4-yl]-2-(2-cyclopentylethoxy)-D-phenylalanine]
0.135 | CCc1sc2ncnc(NC(Cc3ccccc3)C(=O)O)c2c1-c1ccnc(Cl)c1C [Example 78, N-[(5Sa)-5-(2-chloro-3-methylpyridin-4-yl)-6-ethylthieno[2,3-d]pyrimidin-4-yl]-D-phenylalanine]

Same assay, conditions: partial inhibitors; @ 10 μM test compound

Structure (SMILES) | percentage fluorescence polarisation inhibition, Mcl-1 FP [% @ 10 μM]
Cc1c(Cl)cccc1-c1c(C(C)C)sc2ncnc(N[C@H](Cc3ccccc3)C(=O)O)c12 [Example 220, N-[(5Ra)-5-(3-chloro-2-methylphenyl)-6-(propan-2-yl)thieno[2,3-d]pyrimidin-4-yl]-D-phenylalanine] | 31.7
CCc1sc2ncnc(N[C@H](Cc3ccccc3Br)C(=O)O)c2c1-c1cccc(Cl)c1C [Example 139, 2-bromo-N-[(5Ra)-5-(3-chloro-2-methylphenyl)-6-ethylthieno[2,3-d]pyrimidin-4-yl]-D-phenylalanine] | 32.75
CC#Cc1sc2ncnc(N[C@H](Cc3ccccc3OCc3ccnn3C(C)(C)C)C(=O)OCC)c2c1-c1ccc(OCCN2CCN(C)CC2)c(Cl)c1C [Example 257, ethyl 2-[(1-tert-butyl-1H-pyrazol-5-yl)methoxy]-N-[(5Sa)-5-{3-chloro-2-methyl-4-[2-(4-methylpiperazin-1-yl)ethoxy]phenyl}-6-(prop-1-yn-1-yl)thieno[2,3-d]pyrimidin-4-yl]-D-phenylalaninate] | 57.15

Same assay, conditions: partial inhibitors; @ 50 μM test compound

Structure (SMILES) | percentage fluorescence polarisation inhibition, Mcl-1 FP [% @ 50 μM]
CCc1sc2ncnc(N[C@H](Cc3ccccc3C#N)C(=O)O)c2c1-c1cccc(Cl)c1C [Example 126, N-[(5Ra)-5-(3-chloro-2-methylphenyl)-6-ethylthieno[2,3-d]pyrimidin-4-yl]-2-cyano-D-phenylalanine] | 41.2

Same assay, conditions: partial inhibitors; @ 200 μM test compound

Structure (SMILES) | percentage fluorescence polarisation inhibition, Mcl-1 FP [% @ 200 μM]
O=C(O)[C@@H](Cc1ccccc1)Nc1ncnc2sc(CO)c(-c3cccc4ccccc34)c12 [Example 197, N-[6-(hydroxymethyl)-(5Ra)-5-(naphthalen-1-yl)thieno[2,3-d]pyrimidin-4-yl]-D-phenylalanine] | 54.1
